Measured values: PMC11510561, “Synthesis, Urease Inhibition, Molecular Docking, and Optical Analysis of a Symmetrical Schiff Base and Its Selected Metal Complexes” (Molecules, 2024)
Read-outs that look alike come from different tables or passages of the source.

Experiments:
[1] = target: T1, urease (Canavalia ensiformis, UniProt P07374); conditions: cited from earlier work
[2] = target: T1, urease; assay: biochemical
Method: The indophenol method as outlined by Weatherburn was employed to assess urease activity by measuring the produced ammonia. Briefly, incubation of the reaction mixture was carried out at 37 degrees Celsius for half an hour on the microplate reader with 96-well plates. The operated mixture consisted of 20 microliters of the enzyme (from 5 units per ml of stock solution), 20 µL of the tested compound (5 mg/mL stock solution), and 50 microliters of the buffer solution. Thiourea was employed as a reference inhibitor, and percentage inhibition was calculated by […].

[3] = ref [36], read-out: IC50 (urease)

T1 sequence (P07374 whole entry, looked up): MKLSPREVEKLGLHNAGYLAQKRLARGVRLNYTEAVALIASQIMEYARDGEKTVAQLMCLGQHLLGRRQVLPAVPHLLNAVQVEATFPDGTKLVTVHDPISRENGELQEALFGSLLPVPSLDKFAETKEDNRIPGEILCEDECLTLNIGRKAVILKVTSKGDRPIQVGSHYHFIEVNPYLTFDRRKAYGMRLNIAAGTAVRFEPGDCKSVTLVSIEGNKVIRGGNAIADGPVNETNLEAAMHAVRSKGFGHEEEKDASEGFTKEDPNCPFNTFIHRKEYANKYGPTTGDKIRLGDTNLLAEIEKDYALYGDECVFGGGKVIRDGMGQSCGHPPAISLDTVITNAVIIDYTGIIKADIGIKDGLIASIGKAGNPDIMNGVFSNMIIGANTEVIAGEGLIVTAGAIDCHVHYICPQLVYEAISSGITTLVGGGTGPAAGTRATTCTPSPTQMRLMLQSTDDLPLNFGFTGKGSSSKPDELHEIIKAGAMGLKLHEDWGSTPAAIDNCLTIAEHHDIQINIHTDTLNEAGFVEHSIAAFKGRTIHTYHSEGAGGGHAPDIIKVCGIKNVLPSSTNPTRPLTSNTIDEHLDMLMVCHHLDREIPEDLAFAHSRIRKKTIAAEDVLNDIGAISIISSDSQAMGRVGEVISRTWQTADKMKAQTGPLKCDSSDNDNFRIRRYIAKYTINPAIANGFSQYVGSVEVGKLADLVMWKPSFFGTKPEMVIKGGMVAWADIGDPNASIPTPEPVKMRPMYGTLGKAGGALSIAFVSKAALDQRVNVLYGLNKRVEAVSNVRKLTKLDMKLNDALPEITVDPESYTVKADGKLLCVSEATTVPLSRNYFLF

## CC(=O)NO [Acetohydroxamic acid]
[1]; ref [37], read-out: IC50 (urease)
  IC50: 7.9 µM
[1]; unit inferred, ref [39], read-out: IC50 (urease), reference drug
  IC50: 32.1 µM

## COc1ccc(-c2n[nH]c(=O)n2/N=C/c2cccc(/C=N/n3c(-c4ccc(OC)cc4)n[nH]c3=O)n2)cc1 [Compound 6, 4,4′-((1E,1′E)-(Pyridine-2,6-diylbis(methanylylidene))bis(azanylylidene))bis(3-(4-methoxyphenyl)-1H-1,2,4-triazol-5(4H)-one)]
[2]
  IC50: 21.8 ± 1.88 µM
other
  melting point: 181 to 183 °C

## Nn1c(-c2ccncc2)n[nH]c1=S [Compound C00005]
[1]; read-out: IC50 (urease), ref [39]
  IC50: > 100 µM

## Nn1c(SCC(=O)O)nnc1-c1ccccn1 [Compound H2L]
[1]; read-out: IC50 (urease), ref [38]
  IC50: 14.7 ± 1.4 µM

## Nn1c(SCC(=O)O)nnc1-c1ccncc1 [HL]
[1]; read-out: IC50 (urease), ref [37]
  IC50: 15.1 ± 2.22 µM

## NC(=O)NO [Hydroxyurea]
[1]; [3]
  IC50: 100 µM

## NC(N)=S [Thiourea]
[2]; indophenol method, 37 degrees Celsius, half an hour, thiourea as reference, read-out: Urease Inhibition IC50
  IC50: 20.7 µM
[1]; ref [35], read-out: IC50 (urease)
  IC50: 22 µM
[1]; [3]
  IC50: 23 µM
